SMILES strings stand for the structures. In brackets after ≈: the same amount, converted by molar mass. *1 amine or outer side, *2 acyl side, *3 side chain or, on linkers, in order; H or OH if unused. Where a SMILES comes first, the peptide text is derived from it. Bridges are numbered along the chain shown (N, C = ends). [ ]: non-standard residue; d: D form. The star is where a group is joined. Phe(3R-OH) = O=C([C@@H](N[*:1])[C@H](O[*:3])c1ccccc1)[*:2]; Asn(3S-OH) = NC(=O)[C@@H](O)[C@H](N)C(=O)O; Leu(3R-OH) = CC(C)[C@@H](O)[C@H](N)C(=O)O; Ala(SiMe3) = C[Si](C)(C)C[C@H](N)C(=O)O; dPhe(2-F) = N[C@H](Cc1ccccc1F)C(=O)O; Ala(cPr) = N[C@@H](CC1CC1)C(=O)O; tBuAla = CC(C)(C)C[C@H](N)C(=O)O; aThr = C[C@H](O)[C@H](N)C(=O)O; Aic = NC1(C(=O)O)Cc2ccccc2C1; tBu = CC(C)(C)*

For one assay, the system named is E. faecalis ICB 27159. It counts as cell-based, Enterococcus faecalis. Particulars: ICB 27159. How it is done:
(§1) Determination of the Minimum Inhibitory Concentration (MIC):
(§2) The MIC is determined in the liquid dilution test in accordance with the NCCLS guidelines. Overnight cultures of Staphylococcus aureus 133, Enterococcus faecalis 27159, E. faecium 4147 and Streptococcus pneumoniae G9a are incubated with the desired test substances in a 1:2 dilution series. The MIC determination is carried out with a cell count of 10^5 microbes per ml in Isosensitest medium (Difco, Irvine/USA), with the exception of S. pneumoniae which is tested in BHI broth (Difco, Irvine/USA) with 10% bovine serum with a cell count of 10^6 microbes per ml. The cultures are incubated at 37° C. for 18-24 hours, S. pneumoniae in the presence of 10% CO2.
(§3) The MIC is defined as the lowest concentration of each substance at which visible bacterial growth no longer occurs. The MIC values are reported in μg/ml.

The test system of the next assay is E. faecium L4001. It counts as cell-based, Enterococcus faecium. Particulars: L4001.
For assay [1], the system named is Streptococcus pneumoniae G9a. It counts as cell-based. Particulars: G9a. The procedure: as §1, §2, §3
For assay [2], the system named is Staphylococcus aureus 133. It counts as cell-based. To be noted: 133. How it is done: as §1, §2, §3

For `CC[C@H](C)[C@@H]1NC(=O)[C@@H](CCCNC(=N)N)NC(=O)[C@H](CC(C)C)NC(=O)[C@H]([C@H](O)C(C)C)NC(=O)[C@@H](NC(=O)[C@H](CC2CC2)NC(=O)[C@H](N)CC(C)C)[C@@H](c2ccccc2)OC(=O)[C@H](CO)NC(=O)[C@H]([C@H](O)C(N)=O)NC(=O)CNC(=O)[C@H]([C@H](C)O)NC1=O.O=C(O)C(F)(F)F.O=C(O)C(F)(F)F` [Example 1, D-leucyl-N^1-{(3S,6S,12S,15S,18R,21S,24S,27S,28R)-6-[(1S)-2-amino-1-hydroxy-2-oxoethyl]-18-(3-{[amino(imino)methyl]amino}propyl)-12-[(1S)-1-hydroxyethyl]-3-(hydroxymethyl)-24-[(1R)-1-hydroxy-2-methylpropyl]-21-isobutyl-15-[(1S)-1-methylpropyl]-2,5,8,11,14,17,20,23,26-nonaoxo-28-phenyl-1-oxa-4,7,10,13,16,19,22,25-octaazacyclooctacosan-27-yl}-3-cyclopropyl-L-alaninamide bistrifluoroacetate] (H-[dL][Ala(cPr)][Phe(3R-OH)][Leu(3R-OH)]L[dR]I[aThr]G[Asn(3S-OH)]S; ester 3-C), in the assay with E. faecalis ICB 27159, the “MIC E. faecalis ICB 27159” value worked out at 0.5 µg/mL. For the same compound, the “MIC E. faecium L4001” value against E. faecium L4001 was 0.5 µg/mL. For the same compound, the “MIC S. pneumoniae” value in assay [1] is 0.125 µg/mL. Moreover, in assay [2], the “MIC S. aureus 133” value worked out at 0.125 µg/mL.

With `CC[C@H](C)[C@@H]1NC(=O)[C@@H](CCCNC(=N)N)NC(=O)[C@H](CC(C)C)NC(=O)[C@H]([C@H](O)C(C)C)NC(=O)[C@@H](NC(=O)[C@H](CC(C)C)NC(=O)[C@H](N)CC(C)C)[C@@H](c2ccccc2)OC(=O)[C@H](CO)NC(=O)[C@H]([C@H](O)C(N)=O)NC(=O)CNC(=O)[C@H]([C@H](C)O)NC1=O.O=C(O)C(F)(F)F.O=C(O)C(F)(F)F` [Example 1A, D-Leucyl-N^1-{(3S,6S,12S,15S,18R,21S,24S,27S,28R)-6-[(1S)-2-amino-1-hydroxy-2-oxoethyl]-18-(3-{[amino(imino)methyl]amino}propyl)-12-[(1S)-1-hydroxyethyl]-3-(hydroxymethyl)-24-[(1R)-1-hydroxy-2-methylpropyl]-21-isobutyl-15-[(1S)-1-methylpropyl]-2,5,8,11,14,17,20,23,26-nonaoxo-28-phenyl-1-oxa-4,7,10,13,16,19,22,25-octaazacyclooctacosan-27-yl}-L-leucinamide bistrifluoro-acetate, reference compound] (H-[dL]L[Phe(3R-OH)][Leu(3R-OH)]L[dR]I[aThr]G[Asn(3S-OH)]S; ester 3-C), the “MIC E. faecalis ICB 27159” value against E. faecalis ICB 27159 is 1 µg/mL. Moreover, the “MIC E. faecium L4001” value against E. faecium L4001 turned out to be 0.5 µg/mL. Moreover, in assay [1], the “MIC S. pneumoniae” value is 0.063 µg/mL. The “MIC S. aureus 133” value in assay [2] was 0.25 µg/mL.

As for `CC[C@H](C)[C@@H]1NC(=O)[C@@H](CCCNC(=N)N)NC(=O)[C@H](CC(C)C)NC(=O)[C@H]([C@H](O)C(C)C)NC(=O)[C@@H](NC(=O)[C@H](CC(C)(C)C)NC(=O)[C@H](N)CC(C)C)[C@@H](c2ccccc2)OC(=O)[C@H](CO)NC(=O)[C@H]([C@H](O)C(N)=O)NC(=O)CNC(=O)[C@H]([C@H](C)O)NC1=O` [Example 3, D-leucyl-N^1-{(3S,6S,12S,15S,18R,21S,24S,27S,-28R)-6-[(1S)-2-amino-1-hydroxy-2-oxoethyl]-18-(3-{[amino(imino)methyl]amino}propyl)-12-[(1S)-1-hydroxyethyl]-3-(hydroxymethyl)-24-[(1R)-1-hydroxy-2-methylpropyl]-21-isobutyl-15-[(1S)-1-methylpropyl]-2,5,8,11,14,17,20,23,26-nonaoxo-28-phenyl-1-oxa-4,7,10,13,16,19,22,25-octaazacyclooctacosan-27-yl}-3-tert-butyl-L-alaninamide bistrifluoroacetate] (H-[dL][tBuAla][Phe(3R-OH)][Leu(3R-OH)]L[dR]I[aThr]G[Asn(3S-OH)]S; ester 3-C), in the assay with E. faecalis ICB 27159, the “MIC E. faecalis ICB 27159” value was found to be 0.25 µg/mL (≈ 0.194 µM). Also, the “MIC E. faecium L4001” value in the assay with E. faecium L4001 was found to be 0.25 µg/mL (≈ 0.194 µM). For the same compound, the “MIC S. pneumoniae” value in assay [1] amounted to 0.031 µg/mL (≈ 0.024 µM). Moreover, the “MIC S. aureus 133” value in assay [2] came to 0.125 µg/mL (≈ 0.0969 µM).

Consider `CC[C@H](C)[C@@H]1NC(=O)[C@@H](CCCNC(=N)N)NC(=O)[C@H](CC(C)C)NC(=O)[C@H]([C@H](O)C(C)C)NC(=O)[C@@H](NC(=O)[C@H](CC(C)C)NC(=O)C2(N)Cc3ccccc3C2)[C@@H](c2ccccc2)OC(=O)[C@H](CO)NC(=O)[C@H]([C@H](O)C(N)=O)NC(=O)CNC(=O)[C@H]([C@H](C)O)NC1=O` [Example 18, (2-Amino-2,3-dihydro-1H-indenylcarbonyl)-de(1-D-leucyl)lysobactin bistrifluoroacetate] (H-[Aic]L[Phe(3R-OH)][Leu(3R-OH)]L[dR]I[aThr]G[Asn(3S-OH)]S; ester 3-C), for which, in the assay with E. faecalis ICB 27159, the “MIC E. faecalis ICB 27159” value stood at 1 µg/mL (≈ 0.756 µM). The “MIC E. faecium L4001” value in the assay on E. faecium L4001 worked out at 1 µg/mL (≈ 0.756 µM). Moreover, the “MIC S. pneumoniae” value in assay [1] is 2 µg/mL (≈ 1.51 µM). The “MIC S. aureus 133” value in assay [2] came out at 1 µg/mL (≈ 0.756 µM).

With `CC[C@H](C)[C@@H]1NC(=O)[C@@H](CCCNC(=N)N)NC(=O)[C@H](CC(C)C)NC(=O)[C@H]([C@H](O)C(C)C)NC(=O)[C@@H](NC(=O)[C@H](CC(C)C)NC(=O)[C@H](N)Cc2ccccc2F)[C@@H](c2ccccc2)OC(=O)[C@H](CO)NC(=O)[C@H]([C@H](O)C(N)=O)NC(=O)CNC(=O)[C@H]([C@H](C)O)NC1=O` [Example 23, (2-Fluoro-D-phenylalanyl)-de(1-D-leucyl)lysobactin bistrifluoroacetate] (H-[dPhe(2-F)]L[Phe(3R-OH)][Leu(3R-OH)]L[dR]I[aThr]G[Asn(3S-OH)]S; ester 3-C), in the assay with E. faecalis ICB 27159, the “MIC E. faecalis ICB 27159” value came out at 1 µg/mL (≈ 0.753 µM). Besides, in the assay with E. faecium L4001, the “MIC E. faecium L4001” value was found to be 0.5 µg/mL (≈ 0.376 µM). The “MIC S. pneumoniae” value in assay [1] was 0.125 µg/mL (≈ 0.0941 µM). The “MIC S. aureus 133” value in assay [2] was determined as 0.125 µg/mL (≈ 0.0941 µM).

Consider `CC[C@H](C)[C@@H]1NC(=O)[C@@H](CCCNC(=N)N)NC(=O)[C@H](CC(C)C)NC(=O)[C@H]([C@H](O)C(C)C)NC(=O)[C@@H](NC(=O)[C@H](CC(C)C)NC(=O)[C@H](N)CCSC)[C@@H](c2ccccc2)OC(=O)[C@H](CO)NC(=O)[C@H]([C@H](O)C(N)=O)NC(=O)CNC(=O)[C@H]([C@H](C)O)NC1=O` [Example 24, D-Methionyl-de(1-D-leucyl)lysobactin bistrifluoroacetate] (H-[dM]L[Phe(3R-OH)][Leu(3R-OH)]L[dR]I[aThr]G[Asn(3S-OH)]S; ester 3-C), for which the “MIC E. faecalis ICB 27159” value against E. faecalis ICB 27159 was determined as 2 µg/mL (≈ 1.54 µM). In addition, the “MIC E. faecium L4001” value in the assay with E. faecium L4001 is 1 µg/mL (≈ 0.772 µM). The “MIC S. pneumoniae” value in assay [1] came out at 0.5 µg/mL (≈ 0.386 µM). Further, in assay [2], the “MIC S. aureus 133” value was determined as 0.25 µg/mL (≈ 0.193 µM).

For the compound `CC[C@H](C)[C@@H]1NC(=O)[C@@H](CCCNC(=N)N)NC(=O)[C@H](CC(C)C)NC(=O)[C@H]([C@H](O)C(C)C)NC(=O)[C@@H](NC(=O)[C@H](CC(C)C)NC(=O)[C@@H](N)C[Si](C)(C)C)[C@@H](c2ccccc2)OC(=O)[C@H](CO)NC(=O)[C@H]([C@H](O)C(N)=O)NC(=O)CNC(=O)[C@H]([C@H](C)O)NC1=O` [Example 30, [3-(Trimethylsilyl)-L-alanyl]-de(1-D-leucyl)lysobactin bistrifluoroacetate] (H-[Ala(SiMe3)]L[Phe(3R-OH)][Leu(3R-OH)]L[dR]I[aThr]G[Asn(3S-OH)]S; ester 3-C), in the assay on E. faecalis ICB 27159, the “MIC E. faecalis ICB 27159” value stood at 1 µg/mL (≈ 0.765 µM). In the assay with E. faecium L4001, the “MIC E. faecium L4001” value stood at 0.5 µg/mL (≈ 0.383 µM). Besides, the “MIC S. pneumoniae” value in assay [1] was 0.25 µg/mL (≈ 0.191 µM). In assay [2], the “MIC S. aureus 133” value came out at 0.25 µg/mL (≈ 0.191 µM).

Take `CC[C@H](C)[C@@H]1NC(=O)[C@@H](CCCNC(=N)N)NC(=O)[C@H](CC(C)C)NC(=O)[C@H]([C@H](O)C(C)C)NC(=O)[C@@H](NC(=O)[C@H](CC(C)C)NC(=O)[C@H](N)Cc2ccccc2)[C@@H](c2ccccc2)OC(=O)[C@H](CO)NC(=O)[C@H]([C@H](O)C(N)=O)NC(=O)CNC(=O)[C@H]([C@H](C)O)NC1=O` [Example 38, D-Phenylalanyl-de(1-D-leucyl)lysobactin bistrifluoracetate] (H-[dF]L[Phe(3R-OH)][Leu(3R-OH)]L[dR]I[aThr]G[Asn(3S-OH)]S; ester 3-C): the “MIC E. faecalis ICB 27159” value in the assay with E. faecalis ICB 27159 is 1 µg/mL (≈ 0.763 µM). Moreover, the “MIC E. faecium L4001” value with E. faecium L4001 stood at 0.5 µg/mL (≈ 0.382 µM). The “MIC S. pneumoniae” value in assay [1] is 0.063 µg/mL (≈ 0.0481 µM). For the same compound, the “MIC S. aureus 133” value in assay [2] came to 0.125 µg/mL (≈ 0.0954 µM).

Turning to `CC[C@H](C)[C@@H]1NC(=O)[C@@H](CCCNC(=N)N)NC(=O)[C@H](CC(C)C)NC(=O)[C@H]([C@H](O)C(C)C)NC(=O)[C@@H](NC(=O)[C@H](CC(C)C)NC(=O)[C@H](N)COC(C)(C)C)[C@@H](c2ccccc2)OC(=O)[C@H](CO)NC(=O)[C@H]([C@H](O)C(N)=O)NC(=O)CNC(=O)[C@H]([C@H](C)O)NC1=O` [Example 47, [O-(tert-Butyl)-D-seryl]-de(1-D-leucyl)lysobactin bistrifluoroacetate] (H-[dS](tBu)L[Phe(3R-OH)][Leu(3R-OH)]L[dR]I[aThr]G[Asn(3S-OH)]S; ester 3-C), the “MIC E. faecalis ICB 27159” value in the assay with E. faecalis ICB 27159 amounted to 2 µg/mL (≈ 1.53 µM). For the same compound, the “MIC E. faecium L4001” value in the assay on E. faecium L4001 came to 1 µg/mL (≈ 0.765 µM). Further, the “MIC S. pneumoniae” value in assay [1] was 0.25 µg/mL (≈ 0.191 µM). For the same compound, the “MIC S. aureus 133” value in assay [2] came out at 0.25 µg/mL (≈ 0.191 µM).

Source of the values: patent publication US7368424B2, “Acylated nonadepsipeptides” (AiCuris GmbH & Co. KG, priority 2003, dated 2008).
